# Source: ChEMBL document CHEMBL2331202, “Synthesis, Optimization, and Evaluation of Novel Small Molecules as Antagonists of WDR5-MLL Interaction” (ACS Med Chem Lett, 2013)
# pIC50, pKd: −log10 of the molar value.
# Biological target: T1, WD repeat-containing protein 5 (Homo sapiens, UniProt P61964)
# Test: Antagonist activity at WDR5 (unknown origin)
row,pIC50,SMILES
1,5.22,O=C(O)c1ccc2ccccc2c1-c1c(C(=O)O)ccc2ccccc12

# Biological target: T1, WD repeat-containing protein 5
row,pKd,SMILES
1,< 5.00,CN1CCN(c2ccc(C(F)(F)F)cc2NC(=O)c2ccccc2Cl)CC1
2,5.18,COC(=O)c1ccc(N2CCN(C)CC2)c(NC(=O)c2ccccc2Cl)c1
3,< 4.70,O=C(Nc1cc([N+](=O)[O-])ccc1N1CCCCC1)c1ccccc1Cl
4,5.74,CN1CCN(c2ccc([N+](=O)[O-])cc2NC(=O)c2cccc(Cl)c2)CC1
5,5.46,CN1CCN(c2ccc(-c3ccco3)cc2NC(=O)c2ccccc2Cl)CC1
6,< 4.70,NC1CCN(c2ccc([N+](=O)[O-])cc2NC(=O)c2ccccc2Cl)CC1
7,< 5.00,CN1CCN(c2ccc([N+](=O)[O-])cc2NC(=O)C2CCCCC2)CC1
8,5.82,CN1CCN(c2ccc([N+](=O)[O-])cc2NC(=O)c2cccc3ncccc23)CC1
9,6.20,CN1CCN(c2ccc([N+](=O)[O-])cc2NC(=O)c2ccc(F)cc2Cl)CC1
10,6.15,CN1CCN(c2ccc([N+](=O)[O-])cc2NC(=O)c2cccc3ccccc23)CC1
11,5.33,CC1CN(c2ccc([N+](=O)[O-])cc2NC(=O)c2ccccc2Cl)CCN1C (stereo not drawn)
12,< 5.00,CN1CCN(c2ccc(C(=O)O)cc2NC(=O)c2ccccc2Cl)CC1
13,< 4.70,O=C(Nc1cc([N+](=O)[O-])ccc1N1CCNCC1)c1ccccc1Cl
14,< 4.70,O=C(Nc1cc([N+](=O)[O-])ccc1F)c1ccccc1Cl
15,< 5.00,CN1CCN(c2ccc([N+](=O)[O-])cc2NC(=O)c2cccc(O)c2)CC1
16,5.96,Cc1cccc(C(=O)Nc2cc([N+](=O)[O-])ccc2N2CCN(C)CC2)c1Cl
17,6.17,COc1cc(C(=O)Nc2cc([N+](=O)[O-])ccc2N2CCN(C)CC2)ccc1F
18,< 4.70,CN(C)C1CCN(c2ccc([N+](=O)[O-])cc2NC(=O)c2ccccc2Cl)CC1

row,pKd,SMILES
1,< 5.00,CN1CCN(c2ccc([N+](=O)[O-])cc2NC(=O)c2cccnc2)CC1
2,< 5.00,CN1CCN(c2ccc(C3CC3)cc2NC(=O)c2ccccc2Cl)CC1
3,< 5.00,CN1CCN(c2ccc([N+](=O)[O-])cc2NC(=O)Cc2ccccc2)CC1
4,5.66,CN1CCN(c2ccc(-c3ccncc3)cc2NC(=O)c2ccccc2Cl)CC1
5,5.15,CN1CCCN(c2ccc([N+](=O)[O-])cc2NC(=O)c2ccccc2Cl)CC1
6,5.85,COc1cccc(C(=O)Nc2cc([N+](=O)[O-])ccc2N2CCN(C)CC2)c1
7,6.23,Cc1cc(C(=O)Nc2cc([N+](=O)[O-])ccc2N2CCN(C)CC2)ccc1F
8,5.96,Cc1cccc(C(=O)Nc2cc([N+](=O)[O-])ccc2N2CCN(C)CC2)c1
9,< 5.00,CN1CCN(c2ccc([N+](=O)[O-])cc2NC(=O)c2ccco2)CC1
10,5.51,CN1CCN(c2ccc([N+](=O)[O-])cc2NC(=O)c2ccc(F)cc2)CC1
11,< 4.70,CN(C)CCN(C)c1ccc([N+](=O)[O-])cc1NC(=O)c1ccccc1Cl
12,4.80,CN(C)C1CCN(c2ccc([N+](=O)[O-])cc2NC(=O)c2ccccc2Cl)C1 (stereo not drawn)
13,< 5.00,CN1CCN(c2ccc(N)cc2NC(=O)c2ccccc2Cl)CC1
14,< 4.70,NC1CCN(c2ccc([N+](=O)[O-])cc2NC(=O)c2ccccc2Cl)C1 (stereo not drawn)
15,< 5.00,CN1CCN(c2ccc(Br)cc2NC(=O)c2ccccc2Cl)CC1
16,< 4.70,O=C(Nc1cc([N+](=O)[O-])ccc1N1CCOCC1)c1ccccc1Cl
17,< 4.70,CCN1CCN(c2ccc([N+](=O)[O-])cc2NC(=O)c2ccccc2Cl)CC1
18,5.24,CN1CCN(c2ccc([N+](=O)[O-])cc2NC(=O)c2ccccc2)CC1

row,SMILES,pKd
1,CC(=O)Nc1cc([N+](=O)[O-])ccc1N1CCN(C)CC1,< 5.00
